Like-named read-outs stand apart in the source and are kept apart here. No end group written: not given here.
Columns and labels:
[1] = target: T1, Elk-1 and MZF-1 DNA-binding activity at the PKCα promoter (Homo sapiens, UniProt P19419+P28698); assay: EMSA of Elk-1 and MZF-1 binding to PKCα promoter probe, nuclear extracts of transfected HEK-293 cells; assay type: biochemical; settings: biotin-labeled WT PKCα promoter probe
T1 construct: Primers and restriction enzyme (R.E.) sites for the full-length and truncated MZF-1, Elk-1; expressed in transfected cells; host or cells: HEK-293 (nuclear extracts)
Protocol: The biotin-labeled WT oligonucleotide probes were incubated with the indicated concentration of nuclear extracts of the different-treated HEK-293 cells, which were transfected with empty vector, Elk-1, MZF-1, MZF-160-72 or mutant MZF-160-72 and the reactions were resolved on a nondenaturing polyacrylamide gel. DNA-protein complexes are indicated by the black arrow-head.
The biotin-labeled wild-type oligonucleotide probes were incubated with the indicated concentration of nuclear extracts of the different-treated HEK-293 cells, which were transfected with empty vector, Elk-1, MZF-1, Elk-1145-157 or mutant Elk-1145-157.
EMSA analysis was performed using a LightShift™ chemiluminescent EMSA kit (Pierce). 15 μg of nuclear extract was used for each EMSA analysis. […] The membrane was immediately cross-linked at 120 mJ/cm^2 using an UV transilluminator and then analyzed via chemiluminescence according to the manufacturer's instructions.

[2] = test system: MDA-MB-231 cells; assay: MTT cell viability with anti-cancer drugs, MDA-MB-231 cells; assay type: cell-based, human; settings: read-out: 50% inhibitory concentration (IC50), cell viability
Protocol: The level of multidrug resistance protein permeability glycoprotein (P-gp) was determined by upper panel. Cell growth was determined using the MTT assay 2 days after treatment (lower panel).
Cell proliferation was analyzed using the yellow tetrazolium (MTT) assay. Cells were seeded in 24-well plates at 1×10^4 cells/well and cultured in DMEM containing 10% FCS at 37° C. overnight. Cells were treated with or without various plasmids and incubated for 24 or 48 h. After incubation, the medium was replaced with fresh medium, and the cells were incubated with 1 mg/ml MTT for 3 h before being dissolved in 1 ml of DMSO for 30 min. The optical density at 570 nm was measured using a spectrophotometer.
To determine if MZF-160-72 peptide-mediated decrease in P-gp expression sensitizes breast cancer cells to chemotherapeutic agents, MZF-160-72-expressing MDA-MB-231 stable cells were treated with acriflavine and cisplatin (commonly used to treat breast cancer-insert) and their cell viability measured.

[3] = test system: Hs578T cells; assay: MTT cell viability with anti-cancer drugs, Hs578T cells; assay type: cell-based, human
[4] = test system: Hs578T and MDA-MB-231 cells; assay: Cell migration assay after treatment with TAT-fused peptides; assay type: cell-based, human; settings: 3 days after addition of the peptides
Protocol: The cell migration assay was performed 3 days after the addition of the peptides to the cells.
(§1) The TAT-fused peptides were designed such that the TAT moiety corresponds to amino acid residues 48-57 of the HIV TAT protein, the MZF-160-72 moiety corresponds to residue 60-72 of the human MZF-1 protein and the Elk-1145-157 moiety corresponds to residues 145-157 of the human Elk-1 protein. The TAT and MZF-1/Elk-1 moieties were linked by three glycine linker residues. The TAT-fused peptide MZF-1 normal fragment (60-72; […] as SEQ ID NO: 57), MZF-1 mutant fragment (60-72; […] as SEQ ID NO: 58), Elk-1 normal fragment (145-157; […] as SEQ ID NO: 59), and Elk-1 mutant fragment (145-157; […] as SEQ ID NO: 60) were synthesized by MDBio, Inc. (Taipei, Taiwan). For transduction of the TAT fusion proteins cells were cultured to 50-60% confluence. The culture medium was removed and replaced with fresh, serum-free medium, followed by the addition of the TAT fusion proteins at the indicated concentrations. Three days post-treatment the cells were used for migration assays and western blotting.
The migration assay was performed using a 48-well Boyden chamber (Neuro Probe) plated with 8-μm pore size polycarbonate membrane filters (Neuro Probe). […] The migratory phenotypes were determined by counting the cells that migrated to the lower side of the filter through microscopy at 200× magnification.

[5] = test system: Hs578T and MDA-MB-231 cells; assay: Immunoblotting of protein levels in TAT-fused peptide-treated cells; assay type: cell-based, human; settings: three days post-treatment
Text: as §1

[6] = target: T2, MZF-1/Elk-1 interaction (Homo sapiens, UniProt P19419+P28698); assay: Co-immunoprecipitation of MZF-1 and Elk-1 in HEK-293 lysates with added TAT-fused peptides; assay type: binding; settings: 50, 100 and 150 nmol peptide added to lysates, overnight at 4° C.
T2 construct: FLAG-Elk-1; 1-428; MZF-1-c-Myc; 1-485; His (from the myc-His vector) (C); expressed in transfected cells; host or cells: HEK-293 (lysates)
Protocol: HEK-293 cells were transfected with empty vector, FLAG-Elk-1, MZF-1-c-Myc, FLAG-MZF-1 or Elk-1-cMyc construct. ‘+’ indicates the presence of each item and ‘-’ indicates their absence. Different concentrations (50, 100 and 150 nmol) of TAT-fused peptides (normal or mutant) were then added to the lysates and incubated overnight at 4° C. and then subjected to immunoprecipitation with anti-c-Myc antibody, followed by immunoblotting against FLAG and c-Myc. Lysates of HEK-293 cells transfected with FLAG-Elk-1 or FLAG-MZF-1 vector indicated as a “Input”.

[7] = target: T3, Elk-1 (Homo sapiens, UniProt P19419); assay: Co-immunoprecipitation of MZF-1-c-Myc fragments with FLAG-Elk-1 in transfected HEK-293 cells; assay type: binding; settings: FLAG-Elk-1 plus c-Myc fragment
T3 construct: FLAG-Elk-1; 1-428; expressed in transfected cells; host or cells: HEK-293
T3 sequence (P19419 1-428): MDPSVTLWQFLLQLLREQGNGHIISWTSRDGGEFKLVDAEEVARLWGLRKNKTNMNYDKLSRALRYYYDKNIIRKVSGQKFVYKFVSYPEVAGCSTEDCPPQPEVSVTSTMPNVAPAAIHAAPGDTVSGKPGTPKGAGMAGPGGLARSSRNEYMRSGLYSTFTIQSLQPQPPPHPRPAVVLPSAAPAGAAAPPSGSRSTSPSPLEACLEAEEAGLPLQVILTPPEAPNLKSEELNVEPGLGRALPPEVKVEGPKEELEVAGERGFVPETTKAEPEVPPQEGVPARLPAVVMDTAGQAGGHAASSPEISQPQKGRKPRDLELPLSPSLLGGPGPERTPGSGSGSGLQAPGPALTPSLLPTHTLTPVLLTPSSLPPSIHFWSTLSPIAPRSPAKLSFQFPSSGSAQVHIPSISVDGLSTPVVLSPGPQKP
Protocol: Red bands indicate the fragments that bound Elk-1 as present in the co-immunoprecipitation assay (lower panel). HEK-293 cells were transfected with 5 μg FLAG-Elk-1 and either empty vector or the indicated MZF-1-c-Myc fragment. The c-Myc-fused peptides were Immunoprecipitation by c-Myc monoclonal antibody and then Immunoblotting with the anti-FLAG antibodies. Lysates of HEK-293 cells transfected with the FLAG-Elk-1 only were also Immunoblotting as a control (Input).
MZF-1 contains an acidic domain (amino acids 60-72) with six aspartates or glutamates upstream of the zinc finger regions. To identify the specific residues through which MZF-1 interacts with Elk-1 we designed various protein fragments containing only the relevant interacting domains for co-immunoprecipitation assays (FIG. 14, top). The full-length MZF-1 and MZF-11-72, MZF-11-141, and MZF-160-72 fragments (all contain the acidic domain) all bound Elk-1 (FIG. 14, lower panel) but not MZF-11-60 or MZF-173-485.

[8] = target: T4, FLAG-Elk-1 (amino acids 1-428) (human, UniProt P19419 1-428); assay: co-immunoprecipitation (anti-c-Myc IP, anti-FLAG blot), HEK-293 cells
T4 construct: range 1-428; Full-length Elk-1 expressed in HEK-293 cells; not shown: FLAG tag
T4 sequence (looked up): T3 sequence (P19419 1-428)

[9] = target: T5, FLAG-MZF-1 (amino acids 1-485) (human, UniProt P28698-2 1-485); assay: co-immunoprecipitation, HEK-293 cells
T5 construct: range 1-485; Full-length MZF-1 expressed in HEK-293 cells; not shown: FLAG tag

[10] = MDA-MB-231 cells before MZF-160-72 expression (parental)
[11] = MZF-160-72-expressing MDA-MB-231 stable cells
[12] = Hs578T cells before MZF-160-72 expression (parental)
[13] = MZF-160-72-expressing Hs578T cells

T1 sequence (P28698 1-485 isoform P28698-2, one chain of several): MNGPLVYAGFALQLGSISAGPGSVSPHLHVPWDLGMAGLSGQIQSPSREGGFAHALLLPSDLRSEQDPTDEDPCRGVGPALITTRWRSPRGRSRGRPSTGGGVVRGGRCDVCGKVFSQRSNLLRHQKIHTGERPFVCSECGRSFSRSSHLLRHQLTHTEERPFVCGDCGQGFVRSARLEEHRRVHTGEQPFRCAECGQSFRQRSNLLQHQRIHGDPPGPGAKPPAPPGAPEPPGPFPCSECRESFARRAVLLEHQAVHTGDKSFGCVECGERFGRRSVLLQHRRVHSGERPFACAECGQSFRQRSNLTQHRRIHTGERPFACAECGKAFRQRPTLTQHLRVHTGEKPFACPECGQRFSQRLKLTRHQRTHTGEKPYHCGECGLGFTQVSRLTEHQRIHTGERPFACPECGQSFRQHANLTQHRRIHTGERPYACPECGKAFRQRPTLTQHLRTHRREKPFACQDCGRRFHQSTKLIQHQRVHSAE
T2 sequence (P28698 1-485 isoform P28698-2, one chain of several): as above

Molecule: Elk-1145-157: Heparin-binding domain fragment, amino acids 145-157 of human Elk-1; expressed as c-Myc-fused fragment (LARSSRNEYMRSG; also: c-Myc tag fusion; listed as Homo sapiens)
- Elk-1 and MZF-1 DNA-binding activity (EMSA) [1]: decreased Elk-1 and MZF-1 DNA-binding activity in a dose-dependent manner

Molecule: N.N.[Cl][Pt][Cl] [cisplatin]
- IC50 [2, 10]: 23.7 µM
- IC50 [2, 11]: 16.2 µM
- IC50 [3, 12]: 28 µM
- IC50 [3, 13]: 21.1 µM

Molecule: YGRKKRRQRRRGGGLARSSRNEYMRSG (listed as Homo sapiens) [TAT-Elk-1145-157, TAT-fused peptide Elk-1 normal fragment (145-157), three glycine linker residues]
- cell migration [4]: reduced cell migration
- levels of EMT-related (PKCα, Slug and Vimentin) proteins [5]: noticeably increased
- levels of MET-related (E-cadherin) proteins [5]: decreased
- binding of MZF-1 to Elk-1 and vice versa (co-immunoprecipitation) [6]: reduced the binding of MZF-1 to Elk-1 and vice versa in a dose-dependent manner

Molecule: mutant MZF-160-72: MZF-1 60-72 fragment with aspartates D61, D67, D70 and D72 changed to uncharged alanine
- binding to Elk-1 (co-immunoprecipitation) [7]: substantially decreased
- Elk-1 and MZF-1 DNA-binding activity (EMSA) [1]: did not affect their binding activity

Molecule: acriflavine
- IC50 [2, 10]: 2.43 µM
- IC50 [2, 11]: 1.49 µM
- IC50 [3, 12]: 2.56 µM
- IC50 [3, 13]: 1.33 µM

Molecule: YGRKKRRQRRRGGGDEDTPDQESRLDS (listed as Homo sapiens) [TAT-MZF-160-72, TAT-fused peptide MZF-1 normal fragment (60-72), three glycine linker residues]
- cell migration [4]: reduced cell migration
- levels of EMT-related (PKCα, Slug and Vimentin) proteins [5]: noticeably increased
- levels of MET-related (E-cadherin) proteins [5]: decreased
- binding of MZF-1 to Elk-1 and vice versa (co-immunoprecipitation) [6]: reduced the binding of MZF-1 to Elk-1 and vice versa in a dose-dependent manner

B1: MZF-1-c-Myc fragment, amino acids 1-60 (other, human, UniProt P28698-2 1-60, looked up)
chain: MNGPLVYAGFALQLGSISAGPGSVSPHLHVPWDLGMAGLSGQIQSPSREGGFAHALLLPS
notes: range 1-60; Expressed in HEK-293 cells; also called MZF-11-60; not shown: c-Myc(-His) tag from the pcDNA3.1/myc-His vector
- binding result [8]: no binding

B2: Elk-1-c-Myc fragment, amino acids 145-157 (Mutant) (peptide, UniProt P19419 145-157, looked up)
chain: LAASSANEYMASG
notes: not shown: c-Myc(-His) tag from the pcDNA3.1/myc-His vector
- binding result [9]: no binding
